One assay deals with T1, STAT6 (Homo sapiens, UniProt P42226).
T1 construct: These cells express endogenous STAT6; host or cells: HeLa LgBiT clone 4.14 (CRISPR knock-in of HiBiT into the endogenous STAT6 gene)
T1 sequence (P42226 1-847): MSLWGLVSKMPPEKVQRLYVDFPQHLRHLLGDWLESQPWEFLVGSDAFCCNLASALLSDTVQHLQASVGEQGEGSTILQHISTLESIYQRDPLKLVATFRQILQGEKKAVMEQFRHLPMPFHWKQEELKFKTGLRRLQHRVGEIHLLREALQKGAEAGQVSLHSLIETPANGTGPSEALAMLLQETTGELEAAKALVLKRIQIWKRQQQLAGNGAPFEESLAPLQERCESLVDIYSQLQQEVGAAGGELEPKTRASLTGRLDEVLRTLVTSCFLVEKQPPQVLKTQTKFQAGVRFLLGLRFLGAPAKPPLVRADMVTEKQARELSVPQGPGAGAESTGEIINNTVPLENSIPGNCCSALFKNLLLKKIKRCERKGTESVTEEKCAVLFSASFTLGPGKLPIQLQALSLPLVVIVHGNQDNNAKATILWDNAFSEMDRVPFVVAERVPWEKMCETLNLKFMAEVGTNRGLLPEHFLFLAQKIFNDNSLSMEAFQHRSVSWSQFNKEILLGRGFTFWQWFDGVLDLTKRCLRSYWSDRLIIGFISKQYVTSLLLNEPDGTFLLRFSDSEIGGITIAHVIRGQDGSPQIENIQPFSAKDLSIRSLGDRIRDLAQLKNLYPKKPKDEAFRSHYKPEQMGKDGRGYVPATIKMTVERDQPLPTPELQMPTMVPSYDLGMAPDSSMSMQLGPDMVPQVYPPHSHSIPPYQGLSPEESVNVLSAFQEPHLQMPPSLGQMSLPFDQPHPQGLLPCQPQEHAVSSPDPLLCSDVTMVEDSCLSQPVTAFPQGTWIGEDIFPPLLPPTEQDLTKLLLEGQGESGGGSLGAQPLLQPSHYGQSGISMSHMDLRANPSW
As to the kind of experiment: STAT6 Degrader Assay (HiBiT based, HeLa LgBiT clone 4.14 cells). It is filed as cell-based. The note with it: geometric mean across assay runs and compound batches; DC50 provided for test compounds with >80% Emax; read-out: STAT6 degradation DC50. Summed up: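 DC50 (nM) comes from NanoBiT luminescence of HiBiT-knock-in STAT6 in HeLa LgBiT clone 4.14 cells, treated 4-24 h at 37° C. Luminescence reflects non-degraded STAT6, with 50 μM terfenadine wells taken as full degradation.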
In general terms: HiBiT is a short tag that completes a luciferase, so light tracks the accessible tagged protein.

The subject of assay [1] is Eotaxin-3 (CCL26) release. As to the kind of experiment: Human Whole Blood Eotaxin-3 Assay (IL-4 stimulated). The assay is classed as cell-based. As to conditions: Homo sapiens; geometric mean across assay runs and compound batches; EC50 provided for test compounds with >80% Emax. As to the method: This was a human whole blood assay using recombinant human Interleukin 4 to stimulate the blood and measuring the ability of the test compounds to inhibit eotaxin-3 release. The biological activities of the test compounds have been tested in human whole blood stimulated with IL-4 measuring Eotaxin-3 release. The test compounds were added to 384 well clear flat-bottom plate in a 4-fold serial dilution in triplicates using a liquid handler. Human whole blood stabilized in lithium-heparin tubes was added in a volume of 65 μL per well, resulting in a final DMSO concentration of 0.5%. The plate is incubated for 2 h at 37° C. under 5% CO2/95% air. Subsequently, 5 μL of recombinant human IL-4 (R&D Systems, cat #204-ILB) was added to the wells to a final concentration of 400 pM. The plate was incubated for 48 h at 37° C. under 5% CO2/95% air. The plate was spun down for 10 minutes at 500×g and 20 μL supernatant was harvested and transferred to a 384 well v-bottom plate using a liquid handler and stored at −20° C. until further analysis. 10 μL supernatant was used to measure the level of Eotaxin-3 (CCL26) using Human Eotaxin-3 MSD kit from Mesocsale (Cat #K251UEK-4). The assay was performed according to the manufacture instructions.

By DC50 is commonly meant the concentration at which degradation of the target reaches its halfway point. A word on the EC50: it is the midpoint of the concentration-response curve. A high value points to a less potent agent. Turning to `CNc1ccn(-c2ccnc3c2cc([C@H](C)N2CCC(c4c(C)cc(C(=O)N5CCC(CN6CCN(c7ccc(NC8CCC(=O)NC8=O)cc7F)CC6)CC5)cc4F)CC2)n3C)c(=O)c1` (stereo partly drawn) [Example 2g43, 3-((3-fluoro-4-(4-((1-(3-fluoro-5-methyl-4-(1-((S)-1-(1-methyl-4-(2-(methyl-amino)-2-oxopyridin-1(2H)-yl)-1H-pyrrolo[2,3-b]pyridin-2-yl)ethyl)piperidin-4-yl)-benzoyl)piperidin-4-yl)meth-yl)piperazin-1-yl)phenyl)-amino)piperidine-2,6-dione], the half-maximal degradation concentration (DC50) on STAT6 stood at 15.7 nM. The compound further came in with an EC50 in assay [1] of 64.6 nM. For `CNc1cc(=O)n(-c2ccnc3c2cc(CN2CCC(c4c(F)cc(C(=O)N5CCC(CN6CCN(c7ccc(NC8CCC(=O)NC8=O)cc7F)CC6)CC5)cc4F)CC2)n3C)cc1F` (stereo not drawn) [Example 2g32, 3-((4-(4-((1-(3,5-difluoro-4-(1-((4-(5-fluoro-4-(methyl-amino)-2-oxopyridin-1(2H)-yl)-1-methyl-1H-pyrrolo[2,3-b]pyridin-2-yl)methyl)piperi-din-4-yl)benzoyl)piperidin-4-yl)methyl)piperazin-1-yl)-3-fluorophenyl)amino)piperi-dine-2,6-dione] the same measures were 10.6 nM and 56.9 nM. `CNc1ccn(-c2ccnc3c2cc([C@H](C)N2CC=C(c4c(C)cc(C(=O)N5CCC(CN6CCN(c7ccc(NC8CCC(=O)NC8=O)c(OC)c7)CC6)CC5)cc4F)CC2)n3C)c(=O)c1` (stereo partly drawn) [Example 2g125, 3-((4-(4-((1-(3-fluoro-5-meth-yl-4-(1-((S)-1-(1-methyl-4-(4-(methylamino)-2-oxopyridin-1(2H)-yl)-1H-pyrrolo[2,3-b]pyridin-2-yl)ethyl)-1,2,3,6-tetrahydropyridin-4-yl)benzo-yl)piperidin-4-yl)methyl)-piperazin-1-yl)-2-methoxy-phenyl)amino)piperidine-2,6-dione] showed an EC50 in assay [1] of 12.9 nM. Still for that read-out and setting: the same measure for `CNc1ccn(-c2ccnc3c2cc([C@H](C)N2CC=C(c4c(F)cc(C(=O)N5CCC(CN6CCN(c7ccc(N[C@@H]8CCC(=O)NC8=O)cc7F)CC6)CC5)cc4F)CC2)n3C)c(=O)c1` (single isomer, unassigned) [Example 2g105]: 8.7 nM; for `C[C@@H](c1cc2c(-n3cc(F)c4c(c3=O)CCN4)ccnc2n1C)N1CC=C(c2c(F)cc(C(=O)N3CCn4nc(CN5CCC(c6ccc(NC7CCC(=O)NC7=O)cc6F)CC5)cc4C3)cc2F)CC1` (stereo partly drawn) [Example 2g3, 3-((4-(1-((5-(3,5-difluoro-4-(1-((S)-1-(4-(7-fluoro-4-oxo-1,2,3,4-tetrahydro-5H-pyrrolo [3,2-c]pyridin-5-yl)-1-methyl-1H-pyrrolo[2,3-b]pyridin-2-yl)ethyl)-1,2,3,6-tetrahydro-pyridin-4-yl)benzoyl)-4,5,6,7-tetrahydropyrazolo[1,5-a]pyrazin-2-yl)methyl)piperi-din-4-yl)-3-fluorophenyl)-amino)piperidine-2,6-dione]: 8.8 nM; for `CNc1cc(=O)n(-c2ccnc3c2cc([C@H](C)N2CC=C(c4c(C)cc(C(=O)N5CCC(CN6CCN(c7ncc(NC8CCC(=O)NC8=O)cc7F)CC6)CC5)cc4F)CC2)n3C)cc1F` (stereo partly drawn) [Example 2g64, 3-((5-fluoro-6-(4-((1-(3-fluoro-4-(1-((S)-1-(4-(5-fluoro-4-(methylamino)-2-oxopyridin-1(2H)-yl)-1-meth-yl-1H-pyrrolo[2,3-b]pyridin-2-yl)ethyl)-1,2,3,6-tetrahydro-pyridin-4-yl)-5-methylbenzo-yl)piperidin-4-yl)methyl)-piperazin-1-yl)pyridin-3-yl)-amino)piperidine-2,6-dione]: 25.7 nM.

Compound `CNc1cc(=O)n(-c2ccnc3c2cc([C@@H](C)N2CC=C(c4c(F)cc(C(=O)N5CCn6nc(CN7CCC(c8ccc(NC9CCC(=O)NC9=O)cc8F)CC7)cc6C5)cc4F)CC2)n3C)cc1F` (stereo in doubt) [Example 2g2, 3-((4-(1-((5-(3,5-difluoro-4-(1-((R)-1-(4-(5-fluoro-4-(methylamino)-2-oxopyridin-1(2H)-yl)-1-methyl-1H-pyrrolo[2,3-b]pyridin-2-yl)-ethyl)-1,2,3,6-tetrahydro-pyridin-4-yl)benzoyl)-4,5,6,7-tetrahydropyrazolo[1,5-a]pyrazin-2-yl)methyl)piperi-din-4-yl)-3-fluorophenyl)-amino)piperidine-2,6-dione] had an EC50 in assay [1] of 119 nM. This EC50 lies about 4.6-fold higher than the previous one.

`CNc1cc(=O)n(-c2ccnc3c2cc(CN2CC=C(c4c(F)cc(C(=O)N5CCC(CN6CCN(c7ccc(N[C@H]8CCC(=O)NC8=O)cc7F)CC6)CC5)cc4F)CC2)n3C)cc1F` (single isomer, unassigned) [Example 2g66] displayed an EC50 in assay [1] of 173 nM.

In turn, `Cc1cc(C(=O)N2CCC(CN3CCN(c4ccc(NC5CCC(=O)NC5=O)cc4F)CC3)CC2)cc(F)c1C1=CCN([C@@H](C)c2cc3c(-n4cc(F)c5c(c4=O)CCN5)ccnc3n2C)CC1` (stereo partly drawn) [Example 2g31, 3-((3-fluoro-4-(4-((1-(3-fluoro-4-(1-((S)-1-(4-(7-fluoro-4-oxo-1,2,3,4-tetra-hydro-5H-pyrrolo[3,2-c]pyridin-5-yl)-1-methyl-1H-pyrrolo[2,3-b]pyridin-2-yl)-ethyl)-1,2,3,6-tetrahydro-pyridin-4-yl)-5-methylbenzo-yl)-piperidin-4-yl)methyl)-piperazin-1-yl)phenyl)-amino)piperidine-2,6-dione] gave an EC50 in assay [1] of 268 nM. Compound `CNc1nc(=O)n(-c2ccnc3c2cc(CN2CCC(c4c(F)cc(C(=O)N5CCn6nc(CN7CCC(c8ccc(NC9CCC(=O)NC9=O)c(OC)c8)CC7)cc6C5)cc4F)CC2)n3C)cc1F` (stereo not drawn) [Example 2c50, 3-((4-(1-((5-(3,5-difluoro-4-(1-((4-(5-fluoro-4-(methyl-amino)-2-oxopyrimidin-1(2H)-yl)-1-methyl-1H-pyr-rolo[2,3-b]pyridin-2-yl)meth-yl)piperidin-4-yl)benzoyl)-4,5,6,7-tetrahydropyrazolo-[1,5-a]pyrazin-2-yl)methyl)-piperidin-4-yl)-2-methoxy-phenyl)amino)piperidine-2,6-dione] came in with an EC50 in assay [1] of 18.7 nM. Same read-out and setting: the result for `CNc1ccn(-c2ccnc3c2cc([C@H](C)N2CC=C(c4c(C)cc(C(=O)N5CCC(CN6CCN(c7ncc(N[C@@H]8CCC(=O)NC8=O)cc7F)C[C@H]6C)CC5)cc4F)CC2)n3C)c(=O)c1` (single isomer, unassigned) [Example 2g115] reads 9.5 nM; that for `CNc1nc(=O)n(-c2ccnc3c2cc([C@H](C)N2CC=C(c4c(C)cc(C(=O)N5CCn6nc(CN7CCC(c8ccc(NC9CCC(=O)NC9=O)c(OC)c8)CC7)cc6C5)cc4F)CC2)n3C)cc1F` (stereo partly drawn) [Example 2g8, 3-((4-(1-((5-(3-fluoro-4-(1-((S)-1-(4-(5-fluoro-4-(meth-ylamino)-2-oxopyrimidin-1(2H)-yl)-1-methyl-1H-pyrrolo[2,3-b]pyridin-2-yl)-ethyl)-1,2,3,6-tetrahydro-pyridin-4-yl)-5-methylbenzo-yl)-4,5,6,7-tetrahydropyrazolo [1,5-a]pyrazin-2-yl)methyl)-piperidin-4-yl)-2-methoxy-phenyl)amino)-piperidine-2,6-dione], 1.7 nM.

As to `CNc1ccn(-c2ccnc3c2cc([C@H](C)N2CC=C(c4c(C)cc(C(=O)N5CCn6c(nnc6C6CCN(Cc7ccc(NC8CCC(=O)NC8=O)c(OC)c7)CC6)C5)cc4F)CC2)n3C)c(=O)c1` (stereo partly drawn) [Example 2g9, 3-((4-((4-(7-(3-fluoro-5-methyl-4-(1-((S)-1-(1-methyl-4-(4-(methylamino)-2-oxo-pyridin-1(2H)-yl)-1H-pyrrolo [2,3-b]pyridin-2-yl)ethyl)-1,2,3,6-tetrahydropyridin-4-yl)benzoyl)-5,6,7,8-tetra-hydro[1,2,4]triazolo[4,3-a]pyrazin-3-yl)piperidin-1-yl)-methyl)-2-methoxyphenyl)-amino)-piperidine-2,6-dione], the response in assay [1] was half-maximal at 803 nM (EC50).

The record behind these values is patent US20250320205A1, “STAT6 DEGRADERS” (Gilead Sciences, Inc., priority 2024, published 2025).
